{"source": "paper PMC6980506", "about": "“Comparative pharmacokinetics and pharmacodynamics of the advanced Retinol-Binding Protein 4 antagonist in dog and cynomolgus monkey” (PLoS ONE, 2020)", "key": {"[1]": {"assay": "Plasma protein binding by equilibrium dialysis, dog plasma", "assay_type": "in vitro ADME", "details": "pH 7.4, average and standard deviation, read-out: %PPB, plasma protein binding (converted)", "method": "In vitro ADME tests were conducted at AMRI, Albany, NY."}, "[2]": {"system": "standard screening panel of fifty-five GPCRs, enzymes, ion channels, and transporters", "parameters": "method as in PMID 26181715", "details": "cited from earlier work"}, "[3]": {"assay": "Single dose pharmacokinetic study in beagle dog", "assay_type": "in vivo", "details": "for Plasma level, Individual animals / concentration at 0.083 h / concentration at 0.25 h / concentration at 0.5 h / concentration at 1 h / concentration at 2 h / concentration at 4 h / concentration at 6 h: male beagle dog; for concentration at 0.083 h / concentration at 0.25 h / concentration at 0.5 h / concentration at 1 h / concentration at 2 h / concentration at 4 h / concentration at 6 h: male, beagle, dog, plasma, iv", "method": "Pharmacokinetic studies were conducted in male beagle dogs and male cynomolgus monkeys at SRI International, Menlo Park, CA. General procedures for animal care and housing were in accordance with the National Research Council (NRC) Guide for the Care and Use of Laboratory Animals (1996) and the Animal Welfare Standards incorporated in 9 CFR Part 3, 1991 and complied with guidelines set forth by the ARVO Animal Statement for the Use of Animals in Ophthalmic and Vision Research. During the course of the PK experiments, cynomolgus monkeys were individually housed in stainless steel primary enclosures in an AAALAC-accredited facility. Animals were fed a commercial monkey chow, and supplemental food was provided (fresh fruits, vegetables, seeds, and nuts). Reverse osmosis-purified drinking water was available at all times. Cynomolgus monkeys were maintained on a 12:12 hour light:dark cycle at the 64–84°F temperature and 30–70% humidity. Monkeys had access to enrichment opportunities (grooming devices, foraging devices, activity panels and mirrors) and were provided auditory stimuli and human interaction enrichment throughout the study. Blood samples were collected by venipuncture of a peripheral vein. Animals were acclimated to the squeeze back mechanism in their home cage by repeated, short periods of restraint during general husbandry procedures for at least 2 weeks prior to dosing. Animal were not removed from their cages for collection, and no anesthesia/analgesic agents were used for blood collection. […] For PK experiments, beagle dogs were individually housed in enclosed run (≥ 4 ft x 6 ft). Dogs were exposed to their daily ration of food, Harlan Teklad 2025C Certified Global 25% Protein Dog Diet. Water was provided from the public water supply (municipal tap water) ad libitum. Dogs were maintained on a 12:12 hour light:dark cycle at the 72–73°F temperature and 40–71% humidity. Every effort was made to minimize, if not eliminate, pain and suffering in all animals in this study. No restraining devices were used in blood collecting procedures. Dogs were gentle hand-held to restrain by trained technicians with the dogs foreleg extended for sample collection of blood from cephalic vein. Animals were awake during blood sample collection with no anesthesia/analgesic agents used, and positive reinforcement by the technician was provided following collection. […] All dogs were released back to the colony after the study was completed. Male beagle dogs and male cynomolgus monkey received a single i.v. dose of a test compound at 0.5 mg kg^−1 (dog) and 1 mg kg^−1 (monkey) or a single p.o. dose of a test compound of at 2 mg kg^−1 (dog) and 5 mg kg^−1 (monkey). The number of animals that was used in PK experiments is 3 per study group. Intravenous administration vehicle was 3% DMA/45% PEG300/12% ethanol/40% sterile water; p.o. vehicle was 2% Tween 80 in 0.9% saline. […] Blood samples were processed to plasma. Following protein extraction with acetonitrile, compound concentrations in plasma were measured by LC-MS/MS. The plasma drug level data were analyzed using WinNonlin software package; Model 201 (for i.v. bolus administration);was used for the analysis of i.v. data, and Model 200 (for extravascular administration) was used for the analysis of the p.o. data. Aliquots of pre-dose plasma samples, as well as aliquots of plasma PK samples, were used for the analysis of the plasmabiomarker, RBP4."}}, "note": "Values joined by “and” are separate entries in the source; they are usually repeats but may differ in a detail not shown here. Equal values may be shown once. Read-outs that look alike come from different tables or passages of the source."}
{"molecule": "Cc1cc(C(=O)O)nc(N2C[C@H]3C[C@@H](c4ccccc4C(F)(F)F)C[C@H]3C2)n1", "note": "[BPN-14136]", "values": [{"measurement": "fraction unbound at 4 h, 1 μM", "setting": "[1]", "value": 0.003}, {"measurement": "off-target activity within standard screening panel", "setting": "[2]", "value": "no significant off-target activity"}, {"measurement": "%F, bioavailability", "setting": "[3]; Dog, 2.0 mg kg^−1 p.o. vs 0.5 mg kg^−1 i.v.", "value": "84.2 ± 10.4", "unit": "%"}, {"measurement": "plasma concentrations of compound", "setting": "[3]; dog plasma at 24, 36, and 48 hours after 2 mg kg^−1 oral dosing", "value": "70 to 500", "unit": "ng/mL"}, {"measurement": "Plasma level, Individual animals", "setting": "[3]; iv 0.5 mg/kg, 0.083 hr, 0.5 mg/kg", "value": "2750 ng/mL and 2650 ng/mL"}, {"measurement": "Plasma level, Individual animals", "setting": "[3]; iv 0.5 mg/kg, 0.25 hr, 0.5 mg/kg", "value": "2090 ng/mL and 2140 ng/mL"}, {"measurement": "Plasma level, Individual animals", "setting": "[3]; iv 0.5 mg/kg, 0.5 hr, 0.5 mg/kg", "value": "1820 ng/mL and 1800 ng/mL"}, {"measurement": "Plasma level, Individual animals", "setting": "[3]; iv 0.5 mg/kg, 1 hr, 0.5 mg/kg", "value": "1270 ng/mL and 1380 ng/mL"}, {"measurement": "Plasma level, Individual animals", "setting": "[3]; iv 0.5 mg/kg, 2 hr, 0.5 mg/kg", "value": "1060 ng/mL and 1000 ng/mL"}, {"measurement": "Plasma level, Individual animals", "setting": "[3]; iv 0.5 mg/kg, 4 hr, 0.5 mg/kg", "value": "492 ng/mL and 458 ng/mL"}, {"measurement": "Plasma level, Individual animals", "setting": "[3]; iv 0.5 mg/kg, 6 hr, 0.5 mg/kg", "value": "284 ng/mL and 281 ng/mL"}, {"measurement": "Plasma level, Individual animals", "setting": "[3]; iv 0.5 mg/kg, 8 hr, 0.5 mg/kg", "value": "203 ng/mL and 207 ng/mL"}, {"measurement": "Plasma level, Individual animals", "setting": "[3]; iv 0.5 mg/kg, 12 hr, 0.5 mg/kg", "value": "69.2 ng/mL and 141 ng/mL and 111 ng/mL"}, {"measurement": "Plasma level, Individual animals", "setting": "[3]; iv 0.5 mg/kg, 24 hr, 0.5 mg/kg", "value": "186 ng/mL and 171 ng/mL"}, {"measurement": "Plasma level, Individual animals", "setting": "[3]; iv 0.5 mg/kg, 36 hr, 0.5 mg/kg", "value": "47.1 ng/mL and 42.5 ng/mL"}, {"measurement": "Plasma level, Individual animals", "setting": "[3]; iv 0.5 mg/kg, 48 hr, 0.5 mg/kg", "value": "102 ng/mL and 93.0 ng/mL"}, {"measurement": "Plasma level, Individual animals", "setting": "[3]; po 2 mg/kg, 0.25 hr, 2 mg/kg", "value": "9280 ng/mL and 4890 ng/mL"}, {"measurement": "Plasma level, Individual animals", "setting": "[3]; po 2 mg/kg, 0.5 hr, 2 mg/kg", "value": "7730 ng/mL and 6080 ng/mL"}, {"measurement": "Plasma level, Individual animals", "setting": "[3]; po 2 mg/kg, 1 hr, 2 mg/kg", "value": "6080 ng/mL and 5100 ng/mL"}, {"measurement": "Plasma level, Individual animals", "setting": "[3]; po 2 mg/kg, 2 hr, 2 mg/kg", "value": "4460 ng/mL and 4300 ng/mL"}, {"measurement": "Plasma level, Individual animals", "setting": "[3]; po 2 mg/kg, 4 hr, 2 mg/kg", "value": "2560 ng/mL and 2080 ng/mL"}, {"measurement": "Plasma level, Individual animals", "setting": "[3]; po 2 mg/kg, 8 hr, 2 mg/kg", "value": "971 ng/mL and 885 ng/mL"}, {"measurement": "Plasma level, Individual animals", "setting": "[3]; po 2 mg/kg, 10 hr, 2 mg/kg", "value": "581 ng/mL and 690 ng/mL"}, {"measurement": "Plasma level, Individual animals", "setting": "[3]; po 2 mg/kg, 12 hr, 2 mg/kg", "value": "391 ng/mL and 753 ng/mL"}, {"measurement": "Plasma level, Individual animals", "setting": "[3]; po 2 mg/kg, 24 hr, 2 mg/kg", "value": "542 ng/mL and 277 ng/mL"}, {"measurement": "Plasma level, Individual animals", "setting": "[3]; po 2 mg/kg, 36 hr, 2 mg/kg", "value": "95.3 ng/mL and 105 ng/mL"}, {"measurement": "Plasma level, Individual animals", "setting": "[3]; po 2 mg/kg, 48 hr, 2 mg/kg", "value": "152 ng/mL and 160 ng/mL and 67.0 ng/mL"}, {"measurement": "concentration at 0.083 h", "setting": "[3]; 0.5 mg/kg, iv 0.5 mg/kg, 0.083 hr, read-out: Plasma level, Individual animals", "value": 2660, "unit": "ng/mL"}, {"measurement": "concentration at 0.083 h", "setting": "[3]; 0.5 mg/kg, iv 0.5 mg/kg, 0.083 hr, read-out: Plasma level, Mean", "value": 2690, "unit": "ng/mL"}, {"measurement": "concentration at 0.25 h", "setting": "[3]; 0.5 mg/kg, iv 0.5 mg/kg, 0.25 hr, read-out: Plasma level, Individual animals", "value": 2000, "unit": "ng/mL"}, {"measurement": "concentration at 0.25 h", "setting": "[3]; 0.5 mg/kg, iv 0.5 mg/kg, 0.25 hr, read-out: Plasma level, Mean", "value": 2080, "unit": "ng/mL"}, {"measurement": "concentration at 0.5 h", "setting": "[3]; 0.5 mg/kg, iv 0.5 mg/kg, 0.5 hr, read-out: Plasma level, Individual animals", "value": 1690, "unit": "ng/mL"}, {"measurement": "concentration at 0.5 h", "setting": "[3]; 0.5 mg/kg, iv 0.5 mg/kg, 0.5 hr, read-out: Plasma level, Mean", "value": 1770, "unit": "ng/mL"}, {"measurement": "concentration at 1 h", "setting": "[3]; 0.5 mg/kg, iv 0.5 mg/kg, 1 hr, read-out: Plasma level, Individual animals", "value": 1500, "unit": "ng/mL"}, {"measurement": "concentration at 1 h", "setting": "[3]; 0.5 mg/kg, iv 0.5 mg/kg, 1 hr, read-out: Plasma level, Mean", "value": 1380, "unit": "ng/mL"}, {"measurement": "concentration at 2 h", "setting": "[3]; 0.5 mg/kg, iv 0.5 mg/kg, 2 hr, read-out: Plasma level, Individual animals", "value": 1020, "unit": "ng/mL"}, {"measurement": "concentration at 2 h", "setting": "[3]; 0.5 mg/kg, iv 0.5 mg/kg, 2 hr, read-out: Plasma level, Mean", "value": 1030, "unit": "ng/mL"}, {"measurement": "concentration at 4 h", "setting": "[3]; 0.5 mg/kg, iv 0.5 mg/kg, 4 hr, read-out: Plasma level, Individual animals", "value": 442, "unit": "ng/mL"}, {"measurement": "concentration at 4 h", "setting": "[3]; 0.5 mg/kg, iv 0.5 mg/kg, 4 hr, read-out: Plasma level, Mean", "value": 464, "unit": "ng/mL"}, {"measurement": "concentration at 6 h", "setting": "[3]; 0.5 mg/kg, iv 0.5 mg/kg, 6 hr, read-out: Plasma level, Individual animals", "value": 308, "unit": "ng/mL"}, {"measurement": "concentration at 6 h", "setting": "[3]; 0.5 mg/kg, iv 0.5 mg/kg, 6 hr, read-out: Plasma level, Mean", "value": 291, "unit": "ng/mL"}]}
